Measured values taken from patent US9676720B2, “Substituted biaryl compound” (UBE INDUSTRIES, LTD., priority 2013, dated 2017).

What was measured:
[1] = target: human EP2 receptor (Homo sapiens (Human), UniProt P43116); assay: Measurement of EP2 receptor binding action; conditions: membrane fraction of HEK293 cells expressing human EP2 receptor; [3H]prostaglandin E2 10 nM
Protocol: The membrane fraction was recovered on glass fiber filter paper (GF/B, manufactured by Whatman) using a cell harvester (M30R, manufactured by Brandel), and after washing with a buffer solution (10 mM MES-KOH (pH 6.0), 10 mM MgCl2), radioactivity was measured with a liquid scintillation analyzer (2000CA, manufactured by Packard). […] Ki=IC50/(1+([^3H]prostaglandin E2 concentration/Kd))
Note that the dissociation constant (Kd value) was calculated by Scatchard analysis.

[2] = system: Pulmonary fibroblasts derived from a human fetus (IMR90); assay: Test for inhibition of pulmonary fibroblast proliferation (BrdU incorporation); format: cell-based; conditions: Homo sapiens, IMR-90; IMR90; FGF 10 ng/mL; BrdU incorporation; read-out: IC50 value (nM) of inhibition effect of pulmonary fibroblast proliferation
Protocol: Measurement of inhibition effect of pulmonary fibroblast proliferation was performed by modifying the method of Huang et al. (American Journal of Respiratory Cell and Molecular Biology, 39, 482 (2008)). Pulmonary fibroblasts derived from a human fetus (IMR90, purchased from American Type Culture Collection) were cultured in DMEM medium containing 10% FBS and seeded at 1×10^4 cells/well of a 96-well plate. After culturing for approximately 8 hours in a carbon dioxide incubator, the medium was replaced with FBS-free DMEM medium and the culturing was performed for one night. On the following day, the medium was replaced with a new FBS-free DMEM medium, and then a test compound dissolved in dimethyl sulfoxide (final concentration: 0.1%) and FGF (final concentration: 10 ng/mL, manufactured by Wako Pure Chemical Industries, Ltd.) were added thereto and allowed to stand undisturbed in a carbon dioxide incubator. After 22 hours, a BrdU labeling solution (manufactured by Roche) was added and culturing was performed for another 2 hours. After the completion of the culturing, amount of BrdU incorporation was measured using Cell Proliferation ELISA BrdU (colorimetric) (manufactured by Roche). The concentration of the test compound required to inhibit BrdU incorporation to 50% (IC50 value) was calculated by non-linear regression of the test compound concentration and the amount of BrdU incorporation using EXSAS (Ver. 8.0.0, manufactured by Arm Systex).

human EP2 receptor, sequence (P43116 whole entry): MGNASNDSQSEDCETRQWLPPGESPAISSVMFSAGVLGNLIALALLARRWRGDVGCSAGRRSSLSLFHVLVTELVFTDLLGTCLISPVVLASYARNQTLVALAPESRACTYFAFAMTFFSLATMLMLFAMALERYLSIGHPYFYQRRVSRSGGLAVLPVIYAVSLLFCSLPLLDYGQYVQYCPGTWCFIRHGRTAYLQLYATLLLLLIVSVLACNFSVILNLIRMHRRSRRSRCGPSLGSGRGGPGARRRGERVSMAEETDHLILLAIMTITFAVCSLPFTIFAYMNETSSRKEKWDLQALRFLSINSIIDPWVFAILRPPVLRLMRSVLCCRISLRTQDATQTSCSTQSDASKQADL

Ki [1]: 3.2 nM
Structure (SMILES): CCOc1cc(-c2ccc(CN(Cc3cccc(NCC(=O)O)n3)S(=O)(=O)c3ccccn3)cc2)ccn1 [Comparative example 15, (6-{[4-(2-Ethoxypyridin-4-yl)benzyl](pyridin-2-ylsulfonyl)aminomethyl}-pyridin-2-ylamino)acetic acid]
IC50 [2]: > 1 nM
